The experiment addresses Rho-associated protein kinase 2 (Homo sapiens, UniProt O75116). Description: In Vitro Assay. On the procedure:
The effectiveness of compounds of the present invention as ROCK inhibitors can be determined in a 30 μL assay containing 20 mM HEPES, pH 7.5, 20 mM MgCl2, 0.015% Brij-35, 4 mM DTT, 5 μM ATP and 1.5 μM peptide substrate (FITC-AHA-AKRRRLSSLRA-OH) (SEQ ID No. 1). Compounds were dissolved in DMSO so that the final concentration of DMSO was <2%, and the reaction was initiated with Rho kinase variants. After incubation, the reaction was terminated by the addition of EDTA and the phosphorylated and non-phosphorylated peptides separated using a LABCHIP 3000 Reader (Caliper Life Sciences). […] Compounds were tested in dose-response format, and the inhibition of kinase activity was calculated at each concentration of compound. The inhibition data were fit using a curve-fitting program to determine the IC50; i.e., the concentration of compound required to inhibit 50% of kinase activity.
Chain of Rho-associated protein kinase 2 (O75116 whole entry): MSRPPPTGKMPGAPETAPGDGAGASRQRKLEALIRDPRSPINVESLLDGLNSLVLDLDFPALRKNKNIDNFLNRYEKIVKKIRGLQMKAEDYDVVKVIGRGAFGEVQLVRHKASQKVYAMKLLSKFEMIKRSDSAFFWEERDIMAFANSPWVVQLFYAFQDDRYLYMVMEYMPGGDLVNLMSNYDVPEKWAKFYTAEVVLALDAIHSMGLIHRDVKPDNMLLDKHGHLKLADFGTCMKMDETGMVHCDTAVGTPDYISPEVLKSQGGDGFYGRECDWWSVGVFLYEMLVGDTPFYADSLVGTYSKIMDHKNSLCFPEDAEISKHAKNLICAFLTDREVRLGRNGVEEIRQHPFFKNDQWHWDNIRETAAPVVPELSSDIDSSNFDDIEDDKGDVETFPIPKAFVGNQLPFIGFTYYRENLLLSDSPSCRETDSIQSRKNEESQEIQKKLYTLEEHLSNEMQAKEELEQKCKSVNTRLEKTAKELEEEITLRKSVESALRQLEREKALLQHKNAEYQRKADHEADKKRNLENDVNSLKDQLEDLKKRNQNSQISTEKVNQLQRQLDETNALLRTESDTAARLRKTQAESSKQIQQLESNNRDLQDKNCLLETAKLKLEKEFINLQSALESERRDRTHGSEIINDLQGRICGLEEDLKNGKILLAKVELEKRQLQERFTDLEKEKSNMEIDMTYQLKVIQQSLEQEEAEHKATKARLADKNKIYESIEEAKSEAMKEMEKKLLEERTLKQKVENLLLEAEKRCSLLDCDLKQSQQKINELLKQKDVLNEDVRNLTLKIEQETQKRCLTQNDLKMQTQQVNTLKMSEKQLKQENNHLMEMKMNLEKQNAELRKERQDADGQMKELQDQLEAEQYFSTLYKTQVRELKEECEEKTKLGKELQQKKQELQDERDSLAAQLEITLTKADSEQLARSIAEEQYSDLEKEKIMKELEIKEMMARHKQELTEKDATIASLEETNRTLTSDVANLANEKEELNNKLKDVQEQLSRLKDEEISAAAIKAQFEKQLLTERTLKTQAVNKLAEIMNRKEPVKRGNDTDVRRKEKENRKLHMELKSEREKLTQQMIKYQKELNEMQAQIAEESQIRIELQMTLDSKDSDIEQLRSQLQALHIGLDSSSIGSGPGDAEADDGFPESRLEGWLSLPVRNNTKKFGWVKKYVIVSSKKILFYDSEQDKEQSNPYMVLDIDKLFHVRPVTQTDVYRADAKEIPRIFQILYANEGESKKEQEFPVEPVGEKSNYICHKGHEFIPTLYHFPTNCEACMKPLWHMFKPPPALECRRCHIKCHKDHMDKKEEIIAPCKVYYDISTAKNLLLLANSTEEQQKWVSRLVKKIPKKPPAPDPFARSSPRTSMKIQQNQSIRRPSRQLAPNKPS
`COc1cnc(N[C@H]2CC3(C2)C[C@H](Oc2ncccc2C(N)=O)C3)c2cc(Cl)ccc12` (some centres not stated) [US11299488, Example 27] registered a concentration for half-maximal inhibition (IC50) of 15 nM. The same measure for `NC(=O)c1cccnc1O[C@H]1CC2(C[C@H](Nc3nc4c(F)cc(Cl)cc4s3)C2)C1` (some centres not stated) [US11299488, Example 7]: 396 nM. `NC(=O)c1cccnc1O[C@H]1CC2(C[C@H](Nc3nc4c(Cl)cc(Cl)cc4s3)C2)C1` (some centres not stated) [US11299488, Example 5]: the IC50 stood at 105 nM. Compared with the last molecule, the IC50 is about 3.8-fold lower.

Regarding `NC(=O)c1cccnc1O[C@H]1CC2(C[C@H](Nc3nc(-c4ccccc4Cl)cs3)C2)C1` (some centres not stated) [US11299488, Example 10], the IC50 was 1700 nM. Molecule `NC(=O)c1cccnc1O[C@H]1CC2(C[C@H](Nc3nccc(N4CCCC(F)(F)C4)n3)C2)C1` (some centres not stated) [US11299488, Example 36] came in with an IC50 of 175 nM. The same measure for `NC(=O)c1cccnc1O[C@H]1CC2(C[C@H](Nc3nc4c(Cl)cccc4s3)C2)C1` (some centres not stated) [US11299488, Example 4]: 76 nM. The same measure for `NC(=O)c1cccnc1O[C@H]1CC2(C[C@H](Nc3nc(-c4ccc(Cl)cc4)cs3)C2)C1` (some centres not stated) [US11299488, Example 9]: 3300 nM.

Usually IC50 stands for the concentration that gives 50% inhibition. Higher therefore signals a need for much substance.

Values taken from BindingDB's records for patent US11299488 (Bristol-Myers Squibb Company, 2022).
